According to patent US10189809B2, “SGC stimulators” (Ironwood Pharmaceuticals, Inc., priority 2010, dated 2019):
Like-named read-outs stand apart in the source and are kept apart here.

What was measured:
[1] = molecular target: T1, soluble guanylate cyclase (sGC) (Homo sapiens (Human), UniProt Q02108+Q02153); assay: sGC-HEK-cGMP assay run in the absence of SNP (HEK WC assay); format: cell-based; settings: compound at 30 μM, absence of SNP
In short: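 HEK293 cells with endogenous sGC, preincubated 15 min at 37° C with 0.5 mM IBMX, then exposed to test compound 10 min at 37° C without SNP. Cells lysed in 0.1 M HCl; cGMP quantified by LC/MS against a standard curve. EC50 from concentration-response curves.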

[2] = molecular target: T1, soluble guanylate cyclase (sGC); assay: sGC-HEK-cGMP assay run with SNP incubation (HEK WC assay); format: cell-based; settings: for HEK WC Assay (fold increase at 30 μM in the presence of 10 μM SNP): compound at 30 μM; for EC50: in the presence of 10 uM SNP
In short: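 HEK293 cells with endogenous sGC were pretreated with 0.5 mM IBMX for 15 min at 37 °C, then exposed to test compound plus sodium nitroprusside for 10 min at 37 °C.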

[3] = read-out: HEK WC Assay (% Emax at 1 μM with 10 uM SNP)
[4] = read-out: HEK WC Assay (% Emax at 10 μM with 10 uM SNP)
[5] = read-out: HEK WC Assay (% Emax at 30 μM with 10 uM SNP)

T1 sequence (Q02153 whole entry): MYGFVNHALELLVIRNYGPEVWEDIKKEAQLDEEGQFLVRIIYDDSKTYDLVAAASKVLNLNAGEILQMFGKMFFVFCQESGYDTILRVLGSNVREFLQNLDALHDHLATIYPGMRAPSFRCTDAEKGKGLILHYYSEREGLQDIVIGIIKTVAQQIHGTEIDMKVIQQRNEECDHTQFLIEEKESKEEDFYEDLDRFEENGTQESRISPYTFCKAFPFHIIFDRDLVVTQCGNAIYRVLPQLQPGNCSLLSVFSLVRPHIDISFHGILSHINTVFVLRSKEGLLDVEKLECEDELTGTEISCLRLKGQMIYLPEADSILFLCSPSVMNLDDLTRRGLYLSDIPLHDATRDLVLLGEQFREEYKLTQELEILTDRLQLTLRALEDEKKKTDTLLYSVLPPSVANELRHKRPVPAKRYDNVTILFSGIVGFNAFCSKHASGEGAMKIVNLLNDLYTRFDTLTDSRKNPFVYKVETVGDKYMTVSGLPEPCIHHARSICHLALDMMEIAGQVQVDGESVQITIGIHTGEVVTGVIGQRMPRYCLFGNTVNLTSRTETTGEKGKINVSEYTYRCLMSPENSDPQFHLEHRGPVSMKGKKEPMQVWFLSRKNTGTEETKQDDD
T1 sequence (Q02108 whole entry): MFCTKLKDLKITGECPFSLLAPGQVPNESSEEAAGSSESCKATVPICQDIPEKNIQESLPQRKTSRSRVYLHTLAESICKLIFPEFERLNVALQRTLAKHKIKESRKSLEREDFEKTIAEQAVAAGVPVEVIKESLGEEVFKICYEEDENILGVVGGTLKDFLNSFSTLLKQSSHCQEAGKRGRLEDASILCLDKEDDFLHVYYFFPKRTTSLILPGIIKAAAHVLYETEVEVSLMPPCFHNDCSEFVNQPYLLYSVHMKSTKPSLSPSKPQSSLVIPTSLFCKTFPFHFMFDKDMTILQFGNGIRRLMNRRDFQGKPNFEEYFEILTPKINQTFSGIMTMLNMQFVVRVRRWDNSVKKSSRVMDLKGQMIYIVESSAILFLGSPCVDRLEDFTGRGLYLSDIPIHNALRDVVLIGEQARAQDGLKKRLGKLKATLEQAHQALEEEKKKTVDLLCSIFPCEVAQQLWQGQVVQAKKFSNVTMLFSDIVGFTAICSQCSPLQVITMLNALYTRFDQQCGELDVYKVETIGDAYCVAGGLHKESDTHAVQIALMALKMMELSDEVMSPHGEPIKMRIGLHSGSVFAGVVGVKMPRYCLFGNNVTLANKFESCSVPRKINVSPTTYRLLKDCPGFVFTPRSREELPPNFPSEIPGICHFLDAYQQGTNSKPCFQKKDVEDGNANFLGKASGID

Structure (SMILES) | HEK WC Assay (fold increase at 30 μM in the absence of SNP) [1] | HEK WC Assay (fold increase at 30 μM in the presence of 10 μM SNP) [2] | EC50 [2] | Emax [2, 3] | Emax [2, 4] | Emax [2, 5]
CC(C)(C)C(=O)Nc1cnc(-c2cc(-c3ncco3)n(Cc3ccccc3F)n2)nc1N [Compound I-191] | C (C = 2 to <5 fold increase) | E (E = 10 to <20 fold increase) | < 20 µM | 20 to 40% | 40 to 60% | 80 to 100%
CC(C)=CC(=O)Nc1cnc(-c2cc(-c3ccon3)n(Cc3ccccc3F)n2)nc1N [Compound I-240] | E (E = 10 to <20 fold increase) | E (E = 10 to <20 fold increase) | < 20 µM | 60 to 80% | 60 to 80% | 60 to 80%
O=c1[nH]c2cnc(-c3cc(-c4ccon4)n(Cc4ccccc4F)n3)nc2[nH]1 [Compound I-281] | D (D = 5 to <10 fold increase) | E (E = 10 to <20 fold increase) | 20 to 40 µM |  | 60 to 80% | 40 to 60%
Fc1cccc(F)c1Cn1nc(-c2ncccn2)cc1-c1ccon1 [Compound I-199] | C (C = 2 to <5 fold increase) | E (E = 10 to <20 fold increase) | 20 to 40 µM | 10 to 20% | 20 to 40% | 40 to 60%
CN(C(=O)c1ccccc1)c1cnc(-c2cc(-c3ccon3)n(Cc3ccccc3F)n2)nc1N [Compound I-228] | C (C = 2 to <5 fold increase) | E (E = 10 to <20 fold increase) | 20 to 40 µM | 10 to 20% | 40 to 60% | 40 to 60%
O=[N+]([O-])c1cnc(-c2cc(-c3ccon3)n(Cc3ccccc3F)n2)nc1O [Compound I-170] | B (B = 1 to <2 fold increase) | B (B = 1 to <2 fold increase) |  | 0 to 10% | 0 to 10% | 
COc1cnc(-c2cc(-c3ccon3)n(Cc3ccccc3F)n2)nc1N [Compound I-173] | C (C = 2 to <5 fold increase) | D (D = 5 to <10 fold increase) | 100 to 300 µM | 0 to 10% | 40 to 60% | 10 to 20%
COc1oc(-c2cc(-c3ncccn3)nn2Cc2ccccc2F)nc1C [Compound I-291] | B (B = 1 to <2 fold increase) | B (B = 1 to <2 fold increase) |  |  | 0 to 10% | 0 to 10%
Nc1nc(-c2cc(-c3ccon3)n(Cc3ccccc3F)n2)ncc1NC(=O)C(F)(F)c1ccccc1 [Compound I-244] | D (D = 5 to <10 fold increase) | E (E = 10 to <20 fold increase) | 20 to 40 µM | 20 to 40% | 40 to 60% | 40 to 60%
CCOc1cnc(-c2cc(-c3ncccn3)nn2Cc2ccccc2F)o1 [Compound I-292] | B (B = 1 to <2 fold increase) | B (B = 1 to <2 fold increase) |  |  | 0 to 10% | 0 to 10%
CO[C@@](C(=O)Nc1cnc(-c2cc(-c3ccon3)n(Cc3ccccc3F)n2)nc1N)(c1ccccc1)C(F)(F)F [Compound I-229] | C (C = 2 to <5 fold increase) | E (E = 10 to <20 fold increase) | 20 to 40 µM | 20 to 40% | 40 to 60% | 20 to 40%
Oc1cc(-c2cccnc2)nc(-c2cc(-c3ccon3)n(Cc3ccccc3F)n2)n1 [Compound I-300] | B (B = 1 to <2 fold increase) | B (B = 1 to <2 fold increase) |  |  |  | 
Cc1cc(Cl)nc(-c2cc(-c3ccon3)n(Cc3ccccc3F)n2)n1 [Compound I-299] | C (C = 2 to <5 fold increase) | F (F = 20 to <30 fold increase) | < 20 µM |  | 60 to 80% | 60 to 80%
Fc1ccccc1Cn1nc(-c2ncccn2)cc1-c1ncco1 [Compound I-309] | B (B = 1 to <2 fold increase) | E (E = 10 to <20 fold increase) | < 20 µM |  | 20 to 40% | 20 to 40%
Nc1nc(-c2cc(-c3ccon3)n(Cc3ccccc3F)n2)ncc1NC(=O)C1(C(F)(F)F)CCC1 [Compound I-243] | D (D = 5 to <10 fold increase) | E (E = 10 to <20 fold increase) | < 20 µM | 40 to 60% | 40 to 60% | 60 to 80%
CC(C)(O)C(=O)Nc1cnc(-c2cc(-c3ccon3)n(Cc3ccccc3F)n2)nc1N [Compound I-209] | C (C = 2 to <5 fold increase) | E (E = 10 to <20 fold increase) | 20 to 40 µM | 10 to 20% | 20 to 40% | 40 to 60%
Nc1nc(-c2cc(-c3ccon3)n(Cc3ccccc3F)n2)ncc1NC(=O)c1cccc(C(F)(F)F)c1 [Compound I-215] | E (E = 10 to <20 fold increase) | F (F = 20 to <30 fold increase) | < 20 µM | 80 to 100% | 80 to 100% | 80 to 100%
Nc1nc(-c2cc(-c3ccon3)n(Cc3ccccc3F)n2)ncc1NC(=O)CN1C(=O)c2ccccc2C1=O [Compound I-212] | D (D = 5 to <10 fold increase) | E (E = 10 to <20 fold increase) | < 20 µM | 60 to 80% | 60 to 80% | 60 to 80%
Nc1nc(-c2cc(-c3ccon3)n(Cc3ccccc3F)n2)ncc1NC(=O)c1ccon1 [Compound I-175] | E (E = 10 to <20 fold increase) | E (E = 10 to <20 fold increase) | < 20 µM | 60 to 80% | 80 to 100% | 100 to 120%
CC(F)(F)C(=O)Nc1cnc(-c2cc(-c3ccon3)n(Cc3ccccc3F)n2)nc1N [Compound I-226] | E (E = 10 to <20 fold increase) | F (F = 20 to <30 fold increase) | < 20 µM | 40 to 60% | 80 to 100% | 60 to 80%
Fc1ccccc1Cn1nc(-c2ccccn2)cc1N1CCC1 [Compound I-287] | B (B = 1 to <2 fold increase) | C (C = 2 to <5 fold increase) |  |  | 0 to 10% | 0 to 10%
c1cnc(-c2cc(-c3ccon3)n(Cc3cnccn3)n2)nc1 [Compound I-221] | B (B = 1 to <2 fold increase) | C (C = 2 to <5 fold increase) |  | 0 to 10% | 0 to 10% | 10 to 20%
Fc1ccccc1Cn1nc(-c2ncccn2)cc1-c1ccco1 [Compound I-306] | D (D = 5 to <10 fold increase) | E (E = 10 to <20 fold increase) | < 20 µM |  | 20 to 40% | 40 to 60%
